Measured values from patent publication US20260193268A1, “TRICYCLIC PI3Ka INHIBITOR, PREPARATION METHOD THEREFOR, AND PHARMACEUTICAL USE THEREOF” (WIGEN BIOMEDICINE TECHNOLOGY (SHANGHAI) CO., LTD., priority 2022, published 2026).
Like-named read-outs stand apart in the source and are kept apart here.

Tests used:
[1] = tested on: HCC1954 cells (with PI3Kα H1047R mutation); assay: In vitro inhibition of HCC1954 cell proliferation (CellTiter-Lumi); type: cell-based; conditions: HCC1954 cells, 144 h, CellTiter-Lumi
Protocol: Assay for In Vitro Inhibition of HCC1954 Cell Proliferation by Compounds of the Present Disclosure
The growth of the cells was evaluated, and the IC50 for the inhibition of cell growth by the compounds was calculated.

[2] = tested on: MCF-7 cells (with PI3Kα E545K mutation); assay: In vitro inhibition of MCF-7 cell proliferation (CellTiter-Lumi); type: cell-based
Outline: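 Growth IC50 derived from ATP luminescence (CellTiter-Lumi) after 144 h exposure of MCF-7 cells carrying PI3Kα E545K, plated 2000 cells/well and dosed with serial dilutions one day after seeding.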

[3] = Homo sapiens, HCC1954, 144 h, class symbols, read-out: Inhibitory activity against HCC1954 cells (IC50), class symbols
[4] = Homo sapiens, MCF7, 144 h, class symbols, read-out: Inhibitory activity against MCF-7 cells (IC50), class symbols
[5] = Homo sapiens, HCC1954, 144 h, numeric values, read-out: Inhibitory activity against HCC1954 cells (IC50)
[6] = Homo sapiens, MCF7, 144 h, numeric values, read-out: Inhibitory activity against MCF-7 cells (IC50)
[7] = numeric values, read-out: Inhibitory activity against HCC1954 cells (IC50)

| IC50 [1, 3] [nM] | IC50 [2, 4] [nM] | IC50 [1, 5] [nM] | IC50 [2, 6] [nM] | Compound | further results |
| --- | --- | --- | --- | --- | --- |
| < 50 | < 50 | – | – | CC(=O)NC(C)(C)C=C(C#N)C(=O)Nc1ccc(N2CC(N3CCN(c4ccc5c(c4)-c4nc(N6C(=O)OC[C@H]6C(F)F)cn4CCO5)CC3)C2)cc1Cl [Compound 366] | – |
| < 50 | < 50 | – | – | N#CC(=CC1(N)CC1)C(=O)Nc1ccc(N2CC(N3CCN(c4ccc5c(c4)-c4nc(N6C(=O)OC[C@H]6C(F)F)cn4CCO5)CC3)C2)nc1 [Compound 253] | – |
| – | – | > 1000 | 217 | C=CC(=O)N1CCC(CCN2CC3(C2)CN(c2ccc4c(c2)-c2nc(N5C(=O)OC[C@H]5C(F)F)cn2CCO4)C3)CC1 [Compound 19] | – |
| – | – | 70 | 14 | C=CC(=O)Nc1ccc(N2CC(C3CCN(c4ccc5c(c4)-c4nc(N6C(=O)OC[C@H]6C(F)F)cn4CCO5)CC3)C2)cc1 [Compound 130] | – |
| < 50 | < 50 | – | – | CN(C1COC1)C(C)(C)C=C(C#N)C(=O)Nc1ccc(N2CC(N3CCN(c4ccc5c(c4)-c4nc(N6C(=O)OC[C@H]6C(F)F)cn4CCO5)CC3)C2)nn1 [Compound 295] | – |
| – | – | 303 | 88 | C=CC(=O)Nc1ccc(N2CC[C@@H](CN3CCN(c4ccc5c(c4)-c4nc(N6C(=O)OC[C@H]6C(F)F)cn4CCO5)CC3)C2)cc1 [Compound 85] | – |
| – | – | 1 | 0.1 | C=CC(=O)N1CCc2nc(N3CC(N4CCN(c5ccc6c(c5)-c5nc(N7C(=O)OC[C@H]7C(F)F)cn5CCO6)CC4)C3)ccc21 [Compound 169] | – |
| – | – | 75 | 6.6 | C=CC(=O)N(C)c1ccc(N2CC(N3CCN(c4ccc5c(c4)-c4nc(N6C(=O)OC[C@H]6C(F)F)cn4CCO5)CC3)C2)cc1 [Compound 146] | – |
| < 50 | < 50 | – | – | N#CC(=CC1CC1)C(=O)Nc1cnc(N2CC(N3CCN(c4ccc5c(c4)-c4nc(N6C(=O)OC[C@H]6C(F)F)cn4CCO5)CC3)C2)nc1 [Compound 263] | – |
| – | – | 2.9 | 0.5 | C=CC(=O)Nc1ccc(N2CC(N3CCN(c4ccc5c(c4)-c4nc(N6C(=O)OC[C@H]6C(F)F)cn4CCO5)CC3)C2)nn1 [Compound 161] | – |
| – | – | 59 | 6.7 | C=CC(=O)Nc1ccc(N2CC(N3CCN(c4cc5c(cc4OC)OCCn4cc(N6C(=O)OC[C@H]6C(F)F)nc4-5)CC3)C2)cc1 [Compound 98] | – |
| – | – | – | – | CC(C)=CC(=O)CCC(=O)N1CCN(Cc2cc3nc(-c4cccc5[nH]ncc45)nc(N4CCOCC4)c3s2)CC1 [CNX1351] | IC50 [1, 7]: 1190 nM; IC50 ([2]; 144 h, numeric values, read-out: Inhibitory activity against MCF-7 cells (IC50)): 290 nM |
| – | – | 1.2 | 0.1 | C=CC(=O)Nc1ccc(N2CC(N3CCN(c4ccc5c(c4)-c4nc(N6C(=O)OC[C@H]6C(F)F)cn4CCO5)CC3)C2)cc1Cl [Compound 194] | – |
| < 50 | < 50 | – | – | CNC(C)(C)C=C(C#N)C(=O)Nc1ccc(N2CC(N3CCN(c4ccc5c(c4)-c4nc(-c6nc(C)nn6C(C)C)cn4CCO5)CC3)C2)cc1 [Compound 337] | – |
| < 50 | < 50 | – | – | CC(C)(C=C(C#N)C(=O)Nc1ccc(N2CC(N3CCN(c4ccc5c(c4)-c4nc(N6C(=O)OC[C@H]6C(F)F)cn4CCO5)CC3)C2)c(Cl)c1)NC1COC1 [Compound 353] | – |
| < 50 | < 50 | – | – | N#CC(=CC1CCCN1)C(=O)Nc1ccc(N2CC(N3CCN(c4ccc5c(c4)-c4nc(N6C(=O)OC[C@H]6C(F)F)cn4CCO5)CC3)C2)c(F)c1 (stereo partly shown) [Compound 234] | – |
| – | – | 5.3 | 0.9 | C=CC(=O)Nc1ccc(N2CC(N3CCN(c4ccc5c(c4)-c4nc(N6C(=O)OC[C@H]6C(F)F)cn4CCO5)CC3)C2)c(F)c1 [Compound 123] | – |
| < 50 | < 50 | – | – | CC(=O)NC(C)(C)C=C(C#N)C(=O)Nc1ccc(N2CC(N3CCN(c4ccc5c(c4)-c4nc(-c6nc(C)nn6C(C)C)cn4CCO5)CC3)C2)cc1 [Compound 375] | – |
| < 50 | < 50 | – | – | Cc1cc2c(cc1N1CCN(C3CN(c4ccc(NC(=O)C(C#N)=CC(C)(C)C)cc4)C3)CC1)-c1nc(N3C(=O)OC[C@H]3C(F)F)cn1CCO2 [Compound 320] | – |
| – | – | 6 | 0.3 | C=CC(=O)Nc1cc(C)c(N2CC(N3CCN(c4ccc5c(c4)-c4nc(N6C(=O)OC[C@H]6C(F)F)cn4CCO5)CC3)C2)cn1 [Compound 140] | – |
| – | – | 126 | 17 | C=CC(=O)N1CC(C(=O)N2CC3(CCN(c4ccc5c(c4)-c4nc(N6C(=O)OC[C@H]6C(F)F)cn4CCO5)CC3)C2)C1 [Compound 86] | – |
| – | – | 249 | 321 | CC(C)=CC(=O)CCCCC(=O)N1CCN(c2ccc3c(c2)-c2nc(N4C(=O)OC[C@H]4C(F)F)cn2CCO3)CC1 [Compound 158] | – |

| IC50 [1, 3] [nM] | IC50 [2, 4] [nM] | IC50 [1, 5] [nM] | IC50 [2, 6] [nM] | Compound | further results |
| --- | --- | --- | --- | --- | --- |
| < 50 | < 50 | – | – | Cc1c(N2C(=O)OC[C@H]2C(F)F)nc2n1CCOc1ccc(N3CCN(C4CN(c5ccc(NC(=O)C(C#N)=CC(C)(C)C)cc5)C4)CC3)cc1-2 [Compound 323] | – |
| 50 to 100 | < 50 | – | – | C=CC(=O)N1CCc2cc(N3CCN(c4ccc5c(c4)-c4nc(N6C(=O)OC[C@H]6C(F)F)cn4CCO5)CC3)ccc2C1 [Compound 206] | – |
| – | – | 14 | 4.5 | CC(C)(C=C(C#N)C(=O)Nc1ccc(N2CC(N3CCN(c4ccc5c(c4)-c4nc(N6C(=O)OC[C@H]6C(F)F)cn4CCO5)CC3)C2)cc1)N1CCC1 [Compound 171] | – |
| < 50 | < 50 | – | – | CC(C)(C=C(C#N)C(=O)Nc1ccc(N2CC(N3CCN(c4ccc5c(c4)-c4nc(N6C(=O)OC[C@H]6C(F)F)cn4CCO5)CC3)C2)nc1)NC1(C)COC1 [Compound 386] | – |
| 50 to 100 | 50 to 100 | – | – | C=CC(=O)Nc1ccc(C#CC2CCN(c3ccc4c(c3)-c3nc(N5C(=O)OC[C@H]5C(F)F)cn3CCO4)CC2)cc1 [Compound 179] | – |
| < 50 | < 50 | – | – | CNC(C)(C)C=C(C#N)C(=O)Nc1ccc(N2CC(N3CCN(c4ccc5c(c4)-c4nc(N6C(=O)OC[C@H]6C(F)F)cn4CCO5)CC3)C2)c(F)c1 [Compound 225] | – |
| < 50 | < 50 | – | – | CN1CCN(C(C)(C)C=C(C#N)C(=O)Nc2ccc(N3CC(N4CCN(c5ccc6c(c5)-c5nc(N7C(=O)OC[C@H]7C(F)F)cn5CCO6)CC4)C3)cc2)CC1=O [Compound 308] | – |
| < 50 | < 50 | – | – | CC(C)(C=C(C#N)C(=O)Nc1ccc(N2CC(N3CCN(c4ccc5c(c4)-c4nc(N6C(=O)OC[C@H]6C(F)F)cn4CCO5)CC3)C2)cn1)NC1COC1 [Compound 290] | – |
| < 50 | < 50 | – | – | CC(C)(C)C=C(C#N)C(=O)Nc1ccc(N2CC(N3CCN(c4ccc5c(c4)-c4nc(N6C(=O)OC[C@H]6C(F)F)cn4CCO5)CC3)C2)c(F)c1 [Compound 223] | – |
| – | – | 0.6 | 0.1 | CC(C)(N)C=C(C#N)C(=O)Nc1ccc(N2CC(N3CCN(c4ccc5c(c4)-c4nc(N6C(=O)OC[C@H]6C(F)F)cn4CCO5)CC3)C2)cc1 [Compound 137] | – |
| < 50 | < 50 | – | – | CC(C)(C=C(C#N)C(=O)Nc1ccc(N2CC(N3CCN(c4ccc5c(c4)-c4nc(N6C(=O)OC[C@H]6C(F)F)cn4CCO5)CC3)C2)c(F)c1)N1CC2(COC2)C1 [Compound 228] | – |
| < 50 | < 50 | – | – | CN(C1COC1)C(C)(C)C=C(C#N)C(=O)Nc1ccc(N2CC(N3CCN(c4ccc5c(c4)-c4nc(N6C(=O)OC[C@H]6C(F)F)cn4CCO5)CC3)C2)cn1 [Compound 289] | – |
| < 50 | < 50 | – | – | CC(C)(C)C=C(C#N)C(=O)Nc1ccc(N2CC(N3CCN(c4ccc5c(c4)-c4nc(N6C(=O)OC[C@H]6C(F)F)cn4CCO5)CC3)C2)cc1Cl [Compound 364] | – |
| – | – | 5.6 | 0.3 | C=CC(=O)Nc1ccc(N2CC(N3CCN(c4ccc5c(c4)-c4nc(N6C(=O)OC[C@H]6C(F)F)cn4CCO5)CC3)C2)c(C)n1 [Compound 151] | – |
| – | – | 663 | 99 | C=CC(=O)N1CCC(C(=O)NCC(=O)N2CCN(c3ccc4c(c3)-c3nc(N5C(=O)OC[C@H]5C(F)F)cn3CCO4)CC2)CC1 [Compound 6] | – |
| – | – | 154 | 11 | C=CC(=O)N1CC(CN2CC(N3CCN(c4ccc5c(c4)-c4nc(N6C(=O)OC[C@H]6C(F)F)cn4CCO5)CC3)C2)C1 [Compound 91] | – |
| < 50 | < 50 | – | – | CNC(C)(C)C=C(C#N)C(=O)Nc1ccc(N2CC(N3CCN(c4ccc5c(c4)-c4nc(N6C(=O)OC[C@H]6C(F)F)cn4CCO5)CC3)C2)c(Cl)c1 [Compound 350] | – |
| < 50 | < 50 | – | – | CNc1cc2c(cc1N1CCN(C3CN(c4ccc(NC(=O)C(C#N)=CC(C)(C)C)cc4)C3)CC1)-c1nc(N3C(=O)OC[C@H]3C(F)F)cn1CCO2 [Compound 319] | – |
| < 50 | < 50 | – | – | CC(C)(C=C(C#N)C(=O)Nc1ccc(N2CC(N3CCN(c4ccc5c(c4)-c4nc(N6C(=O)OC[C@H]6C(F)F)cn4CCO5)CC3)C2)nn1)NC1COC1 [Compound 296] | – |
| < 50 | < 50 | – | – | N#C/C(=C\CN)C(=O)Nc1ccc(N2CC(N3CCN(c4ccc5c(c4)-c4nc(N6C(=O)OC[C@H]6C(F)F)cn4CCO5)CC3)C2)cc1 [Compound 184] | – |
| < 50 | < 50 | – | – | N#CC(=CC1(N)CC1)C(=O)Nc1ccc(N2CC(N3CCN(c4ccc5c(c4)-c4nc(N6C(=O)OC[C@H]6C(F)F)cn4CCO5)CC3)C2)c(F)c1 [Compound 235] | – |
| – | – | – | 55 | C[C@H](Nc1ccc2c(c1)OCCn1cc(N3C(=O)OC[C@H]3C(F)F)nc1-2)C(N)=O [GDC0077, GDC-0077, reference compound] | IC50 [1, 7]: 82 nM |
